Measured values taken from ChEMBL document CHEMBL2440076, “New triarylpyrazoles as broad-spectrum anticancer agents: design, synthesis, and biological evaluation” (Eur J Med Chem, 2013).

Tests used:
T47D = experiment: Growth inhibition of human T47D cells assessed as cell growth at 10 uM after 48 hrs by sulforhodamine B assay; format: functional; conditions: read-out: Activity
MDA-MB-468 [1] = experiment: Growth inhibition of human MDA-MB-468 cells assessed as cell growth at 10 uM after 48 hrs by sulforhodamine B assay; format: functional; conditions: MDA-MB-468, 48 h, read-out: Activity
UO-31 = experiment: Growth inhibition of human UO31 cells assessed as cell growth at 10 uM after 48 hrs by sulforhodamine B assay; format: functional; conditions: UO-31, 48 h, read-out: Activity
SN12C = experiment: Growth inhibition of human SN12C cells assessed as cell growth at 10 uM after 48 hrs by sulforhodamine B assay; format: functional; conditions: read-out: Activity
RXF 393 = experiment: Growth inhibition of human RXF393 cells assessed as cell growth at 10 uM after 48 hrs by sulforhodamine B assay; format: functional; conditions: RXF 393, 48 h, read-out: Activity
OVCAR-5 = experiment: Growth inhibition of human OVCAR5 cells assessed as cell growth at 10 uM after 48 hrs by sulforhodamine B assay; format: functional; conditions: OVCAR-5, 48 h, read-out: Activity
OVCAR-8 [2] = experiment: Growth inhibition of human OVCAR8 cells assessed as cell growth at 10 uM after 48 hrs by sulforhodamine B assay; format: functional; conditions: OVCAR-8, 48 h, read-out: Activity
UACC-62 = experiment: Growth inhibition of human UACC62 cells assessed as cell growth at 10 uM after 48 hrs by sulforhodamine B assay; format: functional; conditions: UACC-62, 48 h, read-out: Activity
IGROV-1 = experiment: Growth inhibition of human IGROV1 cells assessed as cell growth at 10 uM after 48 hrs by sulforhodamine B assay; format: functional; conditions: IGROV-1, 48 h, read-out: Activity
UACC-257 = experiment: Growth inhibition of human UACC257 cells assessed as cell growth at 10 uM after 48 hrs by sulforhodamine B assay; format: functional; conditions: UACC-257, 48 h, read-out: Activity
SK-MEL-5 [3] = experiment: Growth inhibition of human SK-MEL-5 cells assessed as cell growth at 10 uM after 48 hrs by sulforhodamine B assay; format: functional; conditions: SK-MEL-5, 48 h, read-out: Activity
Malme-3M = experiment: Growth inhibition of human MALME-3M cells assessed as cell growth at 10 uM after 48 hrs by sulforhodamine B assay; format: functional; conditions: read-out: Activity
SF-539 = experiment: Growth inhibition of human SF539 cells assessed as cell growth at 10 uM after 48 hrs by sulforhodamine B assay; format: functional; conditions: SF-539, 48 h, read-out: Activity
NCI-H460 = experiment: Growth inhibition of human NCI-H460 cells assessed as cell growth at 10 uM after 48 hrs by sulforhodamine B assay; format: functional; conditions: NCI-H460, 48 h, read-out: Activity
NCI-H226 = experiment: Growth inhibition of human NCI-H226 cells assessed as cell growth at 10 uM after 48 hrs by sulforhodamine B assay; format: functional; conditions: NCI-H226, 48 h, read-out: Activity
RPMI-8226 [4] = experiment: Growth inhibition of human RPMI8226 cells assessed as cell growth at 10 uM after 48 hrs by sulforhodamine B assay; format: functional; conditions: RPMI-8226, 48 h, read-out: Activity
MOLT-4 = experiment: Growth inhibition of human MOLT4 cells assessed as cell growth at 10 uM after 48 hrs by sulforhodamine B assay; format: functional; conditions: MOLT-4, 48 h, read-out: Activity
K562 = experiment: Growth inhibition of human K562 cells assessed as cell growth at 10 uM after 48 hrs by sulforhodamine B assay; format: functional; conditions: K562, 48 h, read-out: Activity
SW-620 = experiment: Growth inhibition of human SW620 cells after 48 hrs by sulforhodamine B assay; format: functional; conditions: SW-620, 48 h
NCI-H522 = experiment: Growth inhibition of human NCI-H522 cells after 48 hrs by sulforhodamine B assay; format: functional; conditions: NCI-H522, 48 h
HOP-92 = experiment: Growth inhibition of human HOP92 cells after 48 hrs by sulforhodamine B assay; format: functional, cell-based; conditions: HOP-92, 48 h
RPMI-8226 [5] = experiment: Growth inhibition of human RPMI8226 cells after 48 hrs by sulforhodamine B assay; format: functional, cell-based; conditions: RPMI-8226, 48 h
HL-60(TB) = experiment: Growth inhibition of human HL-60(TB) cells after 48 hrs by sulforhodamine B assay; format: functional; conditions: HL-60, 48 h
CCRF-CEM = experiment: Growth inhibition of human CCRF-CEM cells after 48 hrs by sulforhodamine B assay; format: functional
MDA-MB-468 [6] = experiment: Growth inhibition of human MDA-MB-468 cells after 48 hrs by sulforhodamine B assay; format: functional, cell-based; conditions: MDA-MB-468, 48 h
TK-10 = experiment: Growth inhibition of human TK10 cells after 48 hrs by sulforhodamine B assay; format: functional; conditions: TK-10, 48 h
CAKI-1 = experiment: Growth inhibition of human CAKI-1 cells after 48 hrs by sulforhodamine B assay; format: functional; conditions: CAKI-1, 48 h
786-0 = experiment: Growth inhibition of human 786-0 cells after 48 hrs by sulforhodamine B assay; format: functional; conditions: 786-0, 48 h
SK-OV-3 = experiment: Growth inhibition of human SKOV3 cells after 48 hrs by sulforhodamine B assay; format: functional; conditions: SK-OV-3, 48 h
OVCAR-8 [7] = experiment: Growth inhibition of human OVCAR8 cells after 48 hrs by sulforhodamine B assay; format: functional; conditions: OVCAR-8, 48 h
OVCAR-3 = experiment: Growth inhibition of human OVCAR3 cells after 48 hrs by sulforhodamine B assay; format: functional, cell-based; conditions: OVCAR-3, 48 h
OVCAR-4 = experiment: Growth inhibition of human OVCAR4 cells after 48 hrs by sulforhodamine B assay; format: functional; conditions: OVCAR-4, 48 h
SK-MEL-5 [8] = experiment: Growth inhibition of human SK-MEL-5 cells after 48 hrs by sulforhodamine B assay; format: functional; conditions: SK-MEL-5, 48 h
[9] = read-out: LC50 (the source's name)

Cc1cc(C(=O)Nc2cccc(-n3cc(-c4ccncc4)c(-c4ccc(Cl)c(O)c4)n3)c2)ccc1Br showed a growth at 10 µM (T47D) of 87.7%, a growth at 10 µM (MDA-MB-468 [1]) of 93.2% and a growth at 10 µM (UO-31) of 74.7%. For the same compound, the growth at 10 µM (SN12C) was 101%, the growth at 10 µM (RXF 393) was 91% and the growth at 10 µM (OVCAR-5) was 109%. For the same compound, the growth at 10 µM (OVCAR-8 [2]) was 95.1%, the growth at 10 µM (UACC-62) was 105% and the growth at 10 µM (IGROV-1) was 101%. The growth at 10 µM (UACC-257) was 95.9%, the growth at 10 µM (SK-MEL-5 [3]) was 94.4% and the growth at 10 µM (Malme-3M) was 82.6%. For the same compound, the growth at 10 µM (SF-539) was 95.5%, the growth at 10 µM (NCI-H460) was 108% and the growth at 10 µM (NCI-H226) was 101%. The growth at 10 µM (RPMI-8226 [4]) was 92.1%, the growth at 10 µM (MOLT-4) was 76.1% and the growth at 10 µM (K562) was 91.4%.
With O=C(Nc1cccc(-n2cc(-c3ccncc3)c(-c3ccc(Cl)c(O)c3)n2)c1)c1ccc(Cl)c(C(F)(F)F)c1 the growth at 10 µM (T47D) was 100%, the growth at 10 µM (MDA-MB-468 [1]) was 98.2% and the growth at 10 µM (UO-31) was 81.2%. The growth at 10 µM (SN12C) was 98.6%, the growth at 10 µM (RXF 393) was 104% and the growth at 10 µM (OVCAR-5) was 99.6%. For the same compound, the growth at 10 µM (OVCAR-8 [2]) was 96.8%, the growth at 10 µM (UACC-62) was 100% and the growth at 10 µM (IGROV-1) was 98.4%. The growth at 10 µM (UACC-257) was 104%, the growth at 10 µM (SK-MEL-5 [3]) was 95.2% and the growth at 10 µM (Malme-3M) was 79.5%. For the same compound, the growth at 10 µM (SF-539) was 94.7%, the growth at 10 µM (NCI-H460) was 104% and the growth at 10 µM (NCI-H226) was 103%. It also gave a growth at 10 µM (RPMI-8226 [4]) of 98.1%, a growth at 10 µM (MOLT-4) of 79.5% and a growth at 10 µM (K562) of 105%.
Compound O=C(Nc1cccc(-n2cc(-c3ccncc3)c(-c3ccc(Cl)c(O)c3)n2)c1)c1ccc(N2CCOCC2)c(C(F)(F)F)c1 has a growth at 10 µM (T47D) of 69.4%, a growth at 10 µM (MDA-MB-468 [1]) of 66% and a growth at 10 µM (UO-31) of 36.9%. The growth at 10 µM (SN12C) was 73.9%, the GI50 (SW-620) was 1.72 µM and the TGI (SW-620) was 5.68 µM. It also gave a CC50 (SW-620; [9]) greater than 50 µM, a GI50 (NCI-H522) of 2.31 µM and an LC50 (concentration killing 50% of cells) (NCI-H522) greater than 50 µM. For the same compound, the TGI (NCI-H522) was 44 µM, the GI50 (HOP-92) was 0.555 µM and the IC50 (HOP-92) was 0.56 µM. The LC50 (HOP-92) was greater than 50 µM, the TGI (HOP-92) was 3.81 µM and the GI50 (RPMI-8226 [5]) was 1.4 µM. It also gave an IC50 (RPMI-8226 [5]) of 1.4 µM, a TGI (RPMI-8226 [5]) of 12.5 µM and a CC50 (RPMI-8226 [5]; [9]) greater than 50 µM. For the same compound, the GI50 (HL-60(TB)) was 3.81 µM, the TGI (HL-60(TB)) was greater than 50 µM and the CC50 (HL-60(TB); [9]) was greater than 50 µM. For the same compound, the GI50 (CCRF-CEM) was 1.82 µM, the LC50 (CCRF-CEM) was greater than 50 µM and the TGI (CCRF-CEM) was greater than 50 µM. The growth at 10 µM (RXF 393) was -26%, the growth at 10 µM (OVCAR-5) was 116% and the growth at 10 µM (OVCAR-8 [2]) was 37%. It also gave a growth at 10 µM (UACC-62) of 49.2%, a growth at 10 µM (IGROV-1) of 96.8% and a growth at 10 µM (UACC-257) of 38.9%. The growth at 10 µM (SK-MEL-5 [3]) was 50.8%, the growth at 10 µM (Malme-3M) was 10.7% and the growth at 10 µM (SF-539) was 41.6%. It also gave a growth at 10 µM (NCI-H460) of 5.81%, a growth at 10 µM (NCI-H226) of 107% and a GI50 (MDA-MB-468 [6]) of 7.04 µM. The IC50 (MDA-MB-468 [6]) was 7.04 µM, the TGI (MDA-MB-468 [6]) was 26.6 µM and the CC50 (MDA-MB-468 [6]; [9]) was greater than 50 µM. For the same compound, the GI50 (TK-10) was 21.3 µM, the TGI (TK-10) was greater than 50 µM and the CC50 (TK-10; [9]) was greater than 50 µM. The GI50 (CAKI-1) was 2.78 µM, the TGI (CAKI-1) was 24.6 µM and the CC50 (CAKI-1; [9]) was greater than 50 µM. For the same compound, the GI50 (786-0) was 2.83 µM, the TGI (786-0) was 12.5 µM and the CC50 (786-0; [9]) was 46.3 µM. For the same compound, the GI50 (SK-OV-3) was 20 µM, the TGI (SK-OV-3) was greater than 50 µM and the CC50 (SK-OV-3; [9]) was greater than 50 µM. For the same compound, the GI50 (OVCAR-8 [7]) was 3.16 µM, the TGI (OVCAR-8 [7]) was greater than 50 µM and the CC50 (OVCAR-8 [7]; [9]) was greater than 50 µM. For the same compound, the GI50 (OVCAR-3) was 4.81 µM, the IC50 (OVCAR-3) was 4.81 µM and the TGI (OVCAR-3) was greater than 50 µM. The CC50 (OVCAR-3; [9]) was greater than 50 µM, the GI50 (OVCAR-4) was 39.2 µM and the LC50 (concentration killing 50% of cells) (OVCAR-4) was greater than 50 µM. For the same compound, the TGI (OVCAR-4) was greater than 50 µM, the GI50 (SK-MEL-5 [8]) was 2.47 µM and the LC50 (concentration killing 50% of cells) (SK-MEL-5 [8]) was 31.8 µM. The TGI (SK-MEL-5 [8]) was 10.2 µM, the growth at 10 µM (RPMI-8226 [4]) was 5.19% and the growth at 10 µM (MOLT-4) was 29.1%. For the same compound, the growth at 10 µM (K562) was 7.96%.
